Experimental data from patent US20110250273A1, “COMPOSITIONS OF PROTON PUMP INHIBITORS, KITS AND METHODS OF THEIR USE TO TREAT DIABETES” (Melford Scientific, LLC, priority 2008, published 2011).
Marks after values point to notes of the source that are not given here.

How the values were obtained:
Format in all cases: in vivo, human
[1] = system: Type II diabetic patients; assay: Population comparison of HgbA1c in treated diabetic patients with or without a PPI (Examples 1-3); settings: Example 2; 53 Metformin only patients, 11 Metformin plus proton pump inhibitor
Protocol: For a population of 347 Type II diabetic patients with recent HgbA1c measurements of an average 7.53% with a standard deviation of +/−1.77%. All were treated using insulin injections and/or a variety of oral agents, such as the above noted metformin, and other anti-diabetic medicines. The patients were treated for differing periods of time ranging from 3 months to 30 years.
The two groups were compared using a two-Sample T test that is a classical statistical test. […] The difference between the two groups was 0.61%, which is a significant difference with a p-value of 0.002.
64 total patients, of which 53 patients that were treated using only Metformin for the treatment of diabetes and 11 took Metformin and a proton pump inhibitor.
In this population, 79 patients were dosed with a sulfonylurea, either alone or in combination with metformin and/or pioglitazone or rosiglitazone. These 79 patients were not provided with insulin or sitagliptin.

[2] = system: Type II diabetic patients; assay: Tolerability / adverse events in 24 week omeprazole trial (Example 4); settings: all doses (40 mg and 80 mg twice daily), 24 weeks
Description: (§1) Subjects: Five males, 2 females, age range 42-68 years, mean age 54+10 years. BMI's ranged from 31 to 49, mean 38+6. All subjects had co-morbid hypertension, four had co-morbid dyslipidemia and two had co-morbid hypothyroidism. All were stable on oral diabetes medications with 7/7 on metformin, 6/7 on pioglitazone (Actos), 4/7 on a DPP-4 inhibitor, sitagliptan (Januvia) and 4/7 on a Sulfonylurea. All subjects received a physical exam, review of systems and a baseline EKG prior to initiating the PPI trial. Subjects were then seen and evaluated at monthly intervals interviewed for adverse events and monitored for medication compliance and maintenance of daily blood glucose logs.
(§2) Design: All subjects continued on their respective oral antidiabetic medications throughout the study. Baseline data was obtained in a fasting state after an overnight fast. Subjects were then administered 75 g of glucose and blood samples obtained at 1 and 2 hours. Following collection of baseline data, subjects were administered Omeprazole Delayed-Release Capsules USP, (Apotex Inc., Toronto, Canada M9L 179), 40 mg orally twice daily and blood samples again obtained after 8, and 16 weeks. Medications were not taken on the mornings of testing. Following the 16 week sample collection, subjects were increased to 80 mg Omeprazole twice daily and blood samples again obtained at 24 weeks.

[3] = system: Type II diabetic patients; assay: 2 hour glucose tolerance test during 24 week omeprazole trial (Example 4); settings: for C-Peptide 1 hour / C-Peptide 2 hours / Glucose 1 hour / Glucose 2 hours / Insulin 1 hour / Insulin 2 hours: after 75 g glucose
Protocol: (§3) Seven Type II diabetic patients were administered omeprazole for 24 weeks and data was obtained from fasting and following a 2 hour glucose tolerance test at 8 week intervals and compared to baseline values. Statistical comparisons and analysis were performed with a commercial program, Analyse-it, version 2.20.
as §1, §2
(§4) Measurements: Helicobacter Pylori IgG was obtained on each subject as a baseline as were Hemoglobin A1c and fasting Gastrin. Each 2 hour glucose tolerance test provided fasting glucose, insulin and c-peptide as well as 1 hour and 2 hour glucose and stimulated insulin and c-peptide. All measurements were obtained through a commercial laboratory using standardized analytical methods, Quest Diagnostics Laboratory, 5850 Rogerdale Road, Houston, Tex. 77072.

[4] = system: Type II diabetic patients; assay: Hemoglobin A1c, Beta cell area and plasma gastrin during 24 week omeprazole trial (Example 4); settings: for Beta Cell Area, %: calculated using the 2 hour glucose tolerance value by the method of Meier et al
Protocol: as §3, §1, §2, §4
Table 2 summarizes the effects of PPI administration on plasma Gastrin, Hemoglobin A1c and % Beta Cell area (calculated using the 2 hour glucose tolerance value by the method of Meier et al, Diabetes, vol 58, 1595-1603, 2009). […] Hemoglobin A1c, a measure of average blood glucose, was reduced by approximately 0.9% in this cohort, consistent with improved diabetes control (FIG. 5). Finally, the calculated Beta cell mass increased across the treatment period by approximately 25%.

[5] = 8 weeks PPI, Omeprazole 40 mg orally twice daily
[6] = 16 weeks PPI, Omeprazole 40 mg orally twice daily
[7] = 24 weeks PPI, increased to 80 mg Omeprazole twice daily after week 16

## CN(C)C(=N)N=C(N)N [Metformin]
[1]
  Average HgbA1c: 7.27%

## COc1ccc2[nH]c([S+]([O-])Cc3ncc(C)c(OC)c3C)nc2c1 (centres unmarked) [Omeprazole, 5-methoxy-2-[(4-methoxy-3,5-dimethyl-2-pyridinyl)methyl]sulfinyl-1H-benzimidazole]
[2]
  Adverse events: no reports of adverse events
  Tolerability: well tolerated
[3]; [5]
  C-Peptide Fasting: 4.0
  Glucose Fasting: 127
  Insulin Fasting: 13.6
  C-Peptide 1 hour: 7.1
  C-Peptide 2 hours: 8.6***
  Glucose 1 hour: 235#
  Glucose 2 hours: 226
  Insulin 1 hour: 38.7
  Insulin 2 hours: 29.9
[3]; [6]
  C-Peptide Fasting: 3.4
  Glucose Fasting: 136
  Insulin Fasting: 12
  C-Peptide 1 hour: 6.0
  C-Peptide 2 hours: 7.9#
  Glucose 1 hour: 206*
  Glucose 2 hours: 229**
  Insulin 1 hour: 24.7
  Insulin 2 hours: 36.1
[3]; [7]
  C-Peptide Fasting: 3.6
  Glucose Fasting: 147
  Insulin Fasting: 10.9
  C-Peptide 1 hour: 5.8
  C-Peptide 2 hours: 7.9+
  Glucose 1 hour: 251
  Glucose 2 hours: 258
  Insulin 1 hour: 25
  Insulin 2 hours: 34
[3]; after PPI administration
  1 and 2 hour c-peptide secretion: increased
  Fasting insulin levels: unchanged
[3]; at both 1 and 2 hours, after PPI administration
  Stimulated insulin secretion: increased
[3]; at both 1 and 2 hours, 8 and 16 weeks, statistically significant at 16 weeks
  Maximum glucose excursion versus baseline: reduced
[3]; at both 8 and 16 weeks
  Fasting blood glucose versus baseline: reduced
[4]; 8, 16 and 24 weeks after taking PPI, FIG. 5
  Percent hemoglobin A1c reduction from baseline: at least 0.6%
[4]; [5]
  Hemoglobin A1c, %: 7.7%
  Plasma Gastrin: 207 pg/mL
[4]; 8 weeks PPI
  Beta Cell Area, %: 0.46%
[4]; [6]
  Hemoglobin A1c, %: 7.8%
  Plasma Gastrin: 174 pg/mL
[4]; 16 weeks PPI
  Beta Cell Area, %: 0.51%
[4]; 24 weeks PPI
  Beta Cell Area, %: 0.40%
[4]; [7]
  Hemoglobin A1c, %: 7.9%
  Plasma Gastrin: 232 pg/mL
[4]; across the treatment period
  Calculated Beta cell mass increase: approximately 25%
[4]; all patients, statistically significant, FIG. 1
  Change in percent hemoglobin A1c: decrease
[4]; in this cohort of seven patients, versus baseline
  Hemoglobin A1c reduction: approximately 0.9%
[4]; long term PPI administration, serum levels gradually reduced over time
  Plasma gastrin versus baseline: markedly elevated
[4]; seven type II diabetics, 24 week trial, FIG. 1
  Slope of linear best fit of hemoglobin A1c: −0.021 % (HgbA1c) per week
